Data reported in ChEMBL document CHEMBL1201862, “PubChem BioAssay data set” (2004).
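Tested at 5 concentrations; 48 h exposure; 96-well plates; endpoints linearly interpolated, else capped at highest concentration. GI50 = concentration required for 50% inhibition of growth.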 Active and inactive are the calls of the source. Rule as the data show it: active = GI50 up to about 1.1 µM and inactive = higher.

Columns and labels:
Experiment in all cases: NCI tumour cell line growth inhibition, 48 h
[1] = tested on: 786-0
[2] = tested on: A498
[3] = tested on: A549
[4] = tested on: ACHN
[5] = tested on: CAKI-1
[6] = tested on: CCRF-CEM
[7] = tested on: COLO 205
[8] = tested on: DLD-1
[9] = tested on: DMS-114
[10] = tested on: DMS-273
[11] = tested on: EKVX
[12] = tested on: HCC 2998
[13] = tested on: HCT-116
[14] = tested on: HCT-15
[15] = tested on: HL-60
[16] = tested on: HOP-18
[17] = tested on: HOP-62
[18] = tested on: HOP-92
[19] = tested on: HT-29
[20] = tested on: IGROV-1
[21] = tested on: K562
[22] = tested on: KM-20L2
[23] = tested on: KM12
[24] = tested on: LOX IMVI
[25] = tested on: LXFL 529
[26] = tested on: M14
[27] = tested on: M19-MEL
[28] = tested on: MOLT-4
[29] = tested on: Malme-3M
[30] = tested on: NCI-H226
[31] = tested on: NCI-H23
[32] = tested on: NCI-H460
[33] = tested on: OVCAR-3
[34] = tested on: OVCAR-4
[35] = tested on: OVCAR-5
[36] = tested on: OVCAR-8
[37] = tested on: RPMI-8226
[38] = tested on: RXF 393
[39] = tested on: RXF 631
[40] = tested on: SF-268
[41] = tested on: SF-295
[42] = tested on: SF-539
[43] = tested on: SK-MEL-28
[44] = tested on: SK-MEL-2
[45] = tested on: SK-MEL-5
[46] = tested on: SK-OV-3
[47] = tested on: SN12C
[48] = tested on: SNB-75
[49] = tested on: SNB-78
[50] = tested on: SR
[51] = tested on: SW-620
[52] = tested on: TK-10
[53] = tested on: U-251
[54] = tested on: UACC-257
[55] = tested on: UACC-62
[56] = tested on: UO-31
[57] = tested on: XF498

With `COC(=O)C1CC(=O)O[C@H]1c1ccc(OC)c(OC)c1` (some centres not stated) the GI50 [1] was > 100 µM (inactive), the GI50 [2] was > 100 µM (inactive) and the GI50 [3] was > 100 µM (inactive). For the same compound, the GI50 [4] was > 100 µM (inactive), the GI50 [5] was > 100 µM (inactive) and the GI50 [6] was > 100 µM (inactive). For the same compound, the GI50 [7] was > 100 µM (inactive), the GI50 [8] was > 100 µM (inactive) and the GI50 [9] was > 100 µM (inactive). The GI50 [10] was > 100 µM (inactive), the GI50 [11] was > 100 µM (inactive) and the GI50 [12] was > 100 µM (inactive). For the same compound, the GI50 [13] was > 100 µM (inactive), the GI50 [14] was greater than 100 µM and the GI50 [15] was > 100 µM (inactive). For the same compound, the GI50 [16] was > 100 µM (inactive), the GI50 [17] was > 100 µM (inactive) and the GI50 [18] was > 100 µM (inactive). For the same compound, the GI50 [19] was > 100 µM (inactive), the GI50 [20] was > 100 µM (inactive) and the GI50 [21] was > 100 µM (inactive). The GI50 [22] was > 100 µM (inactive), the GI50 [23] was > 100 µM (inactive) and the GI50 [24] was > 100 µM (inactive). For the same compound, the GI50 [25] was > 100 µM (inactive), the GI50 [26] was > 100 µM (inactive) and the GI50 [27] was > 100 µM (inactive). The GI50 [28] was > 100 µM (inactive), the GI50 [29] was > 100 µM (inactive) and the GI50 [30] was > 100 µM (inactive). The GI50 [31] was > 100 µM (inactive), the GI50 [32] was > 100 µM (inactive) and the GI50 [33] was > 100 µM (inactive). The GI50 [34] was > 100 µM (inactive), the GI50 [35] was > 100 µM (inactive) and the GI50 [36] was > 100 µM (inactive). For the same compound, the GI50 [37] was > 100 µM (inactive), the GI50 [38] was > 100 µM (inactive) and the GI50 [39] was > 100 µM (inactive). The GI50 [40] was > 100 µM (inactive), the GI50 [41] was > 100 µM (inactive) and the GI50 [42] was > 100 µM (inactive). The GI50 [43] was > 100 µM (inactive), the GI50 [44] was > 100 µM (inactive) and the GI50 [45] was > 100 µM (inactive). The GI50 [46] was > 100 µM (inactive), the GI50 [47] was > 100 µM (inactive) and the GI50 [48] was > 100 µM (inactive). The GI50 [49] was > 100 µM (inactive), the GI50 [50] was > 100 µM (inactive) and the GI50 [51] was > 100 µM (inactive). The GI50 [52] was > 100 µM (inactive), the GI50 [53] was > 100 µM (inactive) and the GI50 [54] was > 100 µM (inactive). For the same compound, the GI50 [55] was > 100 µM (inactive), the GI50 [56] was > 100 µM (inactive) and the GI50 [57] was > 100 µM (inactive).
